Results published in ChEMBL document CHEMBL1142911, “Design and synthesis of pyridine-pyrazolopyridine-based inhibitors of protein kinase B/Akt” (Bioorg Med Chem, 2007).

What was measured:
[1] = system: MIA PaCa-2; experiment: Antiproliferative activity against MIA PaCa cells by MTT assay; assay type: functional, cell-based; settings: Homo sapiens
[2] = molecular target: cAMP-dependent protein kinase (PKA) (Homo sapiens, UniProt P22694+P17612+P22612); experiment: Inhibition of PKA; assay type: protein assay

Row | SMILES | EC50 [1] [nM] | IC50 [2] [nM]
1 | N[C@H](COc1cncc(-c2cc3cn[nH]c3cn2)c1)Cc1c[nH]c2ccccc12 | 1160 | 
2 | Cc1n[nH]c2cnc(-c3cncc(OC[C@@H](N)Cc4ccccc4)c3)cc12 | 680 | 32
3 | N[C@H](COc1cncc(-c2ccc3[nH]nc(Cl)c3c2)c1)Cc1c[nH]c2ccccc12 | 380 | 6.8
4 | Cc1n[nH]c2cnc(-c3cncc(OC[C@@H](N)Cc4c[nH]c5ccccc45)c3)cc12 | 41 | 15
5 | N[C@H](COc1cncc(-c2ccc3[nH]nc(C(F)(F)F)c3c2)c1)Cc1c[nH]c2ccccc12 | 1290 | 16
6 | N[C@H](COc1cncc(-c2cc3c(-c4ccccc4)n[nH]c3cn2)c1)Cc1ccccc1 | 584 | 371
7 | N[C@H](COc1cncc(-c2cc3c(-c4ccco4)n[nH]c3cn2)c1)Cc1ccccc1 | 1200 | 274
8 | N[C@H](COc1cncc(-c2cc3c(Cl)n[nH]c3cn2)c1)Cc1ccccc1 |  | 46
9 | Nc1cc2[nH]nc(Cl)c2cc1-c1cncc(OC[C@@H](N)Cc2c[nH]c3ccccc23)c1 | 330 | 58
10 | N[C@H](COc1cncc(-c2ccc3[nH]ncc3c2)c1)Cc1c[nH]c2ccccc12 | 820 | 
11 | C=Cc1n[nH]c2cnc(-c3cncc(OC[C@@H](N)Cc4ccccc4)c3)cc12 | 660 | 32
12 | N[C@H](COc1cncc(-c2cc3cn[nH]c3cc2[N+](=O)[O-])c1)Cc1c[nH]c2ccccc12 | 2940 | 
13 | N[C@H](COc1cncc(-c2cc3cn[nH]c3cn2)c1)Cc1ccccc1 | 1690 | 
